# Results taken from patent publication US20060258739A1, “Dihydrobenzofuran derivatives and uses therof” (Wyeth, priority 2005, published 2006).
# Target: T1, human 5-hydroxytryptamine-2C (h5-HT2C) receptor (Homo sapiens, UniProt P28335)
# T1 construct: expressed in transfected cells; host or cells: CHO (Chinese Hamster Ovary) cells; membrane preparation
# T1 sequence (P28335 33-458): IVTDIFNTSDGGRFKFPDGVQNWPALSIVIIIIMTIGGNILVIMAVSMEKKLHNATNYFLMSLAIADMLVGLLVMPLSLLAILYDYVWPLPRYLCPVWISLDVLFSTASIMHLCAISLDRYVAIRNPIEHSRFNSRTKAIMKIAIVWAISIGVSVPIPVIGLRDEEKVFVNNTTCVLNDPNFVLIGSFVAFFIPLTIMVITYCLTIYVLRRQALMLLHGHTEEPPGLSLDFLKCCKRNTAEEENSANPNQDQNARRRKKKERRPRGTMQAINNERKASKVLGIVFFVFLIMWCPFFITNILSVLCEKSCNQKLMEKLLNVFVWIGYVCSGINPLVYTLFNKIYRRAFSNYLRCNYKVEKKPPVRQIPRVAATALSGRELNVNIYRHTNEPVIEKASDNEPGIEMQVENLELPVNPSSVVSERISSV
# Assay: [125I]DOI radioligand binding to membranes of CHO cells expressing the h5-HT2C receptor
Compound,"Ki (displacement of [125I]DOI, CHO cell membranes, room temperature 60 min, read-out: Ki (95% confidence interval)) [nM]","Kd (read-out: dissociation constant, KD of [125I] DOI, saturation binding with increasing concentrations of [125I]DOI) [nM]"
CSc1ccc2c(c1)C(N1CCN(C)CC1)Cc1ccccc1S2 (centres unmarked) [Methiothepin],4.6,–
COc1cc(CC(C)N)c(OC)cc1I (centres unmarked) [[^125I] DOI],–,0.4
